Results reported in the NIST ThermoML archive (doi:10.1021/je700746a).
± gives the expanded uncertainty stated by the source.

Details: 298.15 K; 101.33 kPa; Liquid

SMILES: CC(=O)CC(C)C [4-methylpentan-2-one]
- viscosity: 0.56 ± 0.04 mPa·s
